This is an account of results in patent US11707462B2, “Checkpoint kinase 1 (CHK1) inhibitors and uses thereof” (Boundless Bio, Inc., priority 2021, dated 2023).

In assay [1] the test system is p-CHK1 (Ser345). Put plainly: AlphaLISA SureFire Ultra p-CHK1 (Ser345) cellular assay in HT29 cells. Format: cell-based. Particulars: Homo sapiens, HT-29, 16 h at 37° C. On the procedure: Example B: AlphaLisa Cellular Assay
Compound activity in cells was measured using an AlphaLISA® SureFire® Ultra™ p-CHK1 (Ser345) assay (Perkin Elmer, catalog no. ALSU-PCHK1-A10K). HT29 cells were cultured in McCoy 5A medium with 10% FBS and 1% penicillin-streptomycin and seeded to 96-well plates (Corning, catalog no. 3599). Compounds were serially diluted in DMSO over a 10-point dose range with 3-fold dilution and to each well containing cells was added compound solution. Plates were centrifuged at 1000 rpm for 30 seconds. Plates were incubated at 37° C. for 16 h. Supernatant was removed by flicking the plate against a paper towel. Wells were washed once with PBS solution. To each well was added freshly prepared lysis buffer and plates were agitated on a plate shaker at 400 rpm for 30 min. The 96-well cell plates were centrifuged at 1500 rpm for 1 minute. From each well was transferred 10 μL of the lysates to a 384-well Optiplate™ (Perkin Elmer, catalog no. 6007290). To each well was added Acceptor Mix (5 μL) and the plates were sealed and wrapped in foil. Plates were agitated on a plate shaker for 2 minutes, then incubated at room temperature for 1 h. To each well was added Donor Mix (5 μL) and the plates were sealed and wrapped in foil. Plates were agitated on a plate shaker for 2 minutes, then incubated at room temperature for 1 h. AlphaLisa signal was read on an EnVision multimode plate reader (Perkin Elmer). Data were fit to dose-response curves using XLfit (IDBS, Surrey, UK) or Prism (GraphPad Software, La Jolla, Calif., US) to calculate IC50 values for each compound tested.
(In Alpha technology, singlet oxygen from a donor bead excites a nearby acceptor bead.)

The target of assay [2] is T1, Full-length human Chk1 protein (Homo sapiens, UniProt O14757).
T1 construct: purchased Carna Biosciences, Inc. 02-117
T1 sequence (O14757 1-476): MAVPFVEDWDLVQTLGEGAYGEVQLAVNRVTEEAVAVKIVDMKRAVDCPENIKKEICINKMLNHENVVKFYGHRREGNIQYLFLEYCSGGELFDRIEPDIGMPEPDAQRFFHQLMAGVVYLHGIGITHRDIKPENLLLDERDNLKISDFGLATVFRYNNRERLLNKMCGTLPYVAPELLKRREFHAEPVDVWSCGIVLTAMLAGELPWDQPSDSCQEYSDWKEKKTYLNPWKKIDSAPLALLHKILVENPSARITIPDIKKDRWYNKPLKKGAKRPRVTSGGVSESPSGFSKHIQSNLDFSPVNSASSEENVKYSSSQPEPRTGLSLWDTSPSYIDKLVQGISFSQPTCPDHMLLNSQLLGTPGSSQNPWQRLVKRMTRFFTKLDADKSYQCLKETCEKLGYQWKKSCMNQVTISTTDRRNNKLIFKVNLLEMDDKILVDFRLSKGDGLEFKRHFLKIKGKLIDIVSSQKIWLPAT
Put plainly: Kinase HTRF biochemical assay (HTRF KinEASE), Chk1 enzyme activity. Particulars: full-length human Chk1, ATP 1 mM, 60 minutes at room temperature. How it is done: Example A: Kinase HTRF Biochemical Assay
Chk1 enzyme activity was measured using an HTRF KinEASE assay (Cisbio, catalog no. 62ST1PEC). Full-length human Chk1 protein (GenBank accession number NP_001265.1) was obtained from Carna Biosciences, Inc. (Kobe, Japan, catalog no. 02-117). The enzyme reaction was carried out in assay buffer containing (final concentrations): Chk1 enzyme (0.012 ng/μL), MgCl2 (5 mM) and DTT (1 mM). To determine compound dose response, DMSO stock solutions were serially diluted in a 10-point concentration series in duplicate. Compound solution (50 nL) was added to 384-well assay plates (Greiner, catalog no. 784075). To each well containing compound solution was added assay buffer solution (5 μL). Plates were centrifuged at 1000 rpm for 1 minute, then incubated at room temperature for 10 minutes. The reaction was started by addition of substrate buffer (5 μL/well) containing (final concentrations): STK substrate 1-biotin (120 nM) and ATP (1 mM). Assay plates were centrifuged at 1000 rpm for 1 minute, then incubated at room temperature for 60 minutes. The reaction was stopped by addition of detection buffer (Cisbio, 10 μL) containing (final concentrations): STK antibody-cryptate (0.25 nM) and streptavidin-XL665 (7.5 nM). Plates were centrifuged at 1000 rpm for 1 minute, then incubated at 25° C. for 2 hours. HTRF signal was read on an EnVision multimode plate reader […] in HTRF mode. Data were fit to dose-response curves using XLfit (IDBS, Surrey, UK) or Prism (GraphPad Software, La Jolla, Calif., US) to calculate IC50 values for each compound tested.

Some results are limits rather than exact numbers.

In general, IC50 refers to the midpoint of a concentration-inhibition curve. Low readings indicate greater potency, high ones weaker potency. Consider `N#Cc1cnc(Nc2cc(-c3ccccc3O[C@H]3CC[C@@H](N)CC3)[nH]n2)cn1` [Example 1-50, 5-((5-(2-(((1s,4s)-4-aminocyclohexyl)oxy)phenyl)-1H-pyrazol-3-yl)amino)pyrazine-2-carbonitrile], for which the values for the IC50 in assay [1] and in assay [2] were greater than 1000 nM and 100 to 500 nM, respectively.

Turning to `Cc1ccc(O[C@@H]2CC[C@@H](N)C2)c(-c2cc(Nc3cnc(C#N)cn3)n[nH]2)c1F` [Example 3-26, 5-((5-(6-(((1R,3R)-3-aminocyclopentyl)oxy)-2-fluoro-3-methylphenyl)-1H-pyrazol-3-yl)amino)pyrazine-2-carbonitrile], the IC50 in assay [1] was no more than 50 nM; in assay [2], no more than 10 nM.

As for `N#Cc1cnc(Nc2cc(-c3c(O[C@@H]4CC[C@@H](N)C4)ccc(Cl)c3F)[nH]n2)cn1` [Example 3-29, 5-((5-(6-(((1R,3R)-3-aminocyclopentyl)oxy)-3-chloro-2-fluorophenyl)-1H-pyrazol-3-yl)amino)pyrazine-2-carbonitrile], the IC50 in assay [1] is 100 to 500 nM; in assay [2] it was no more than 10 nM.

Consider `Cc1cc(O[C@@H]2CC[C@H](N)C2)c(-c2cc(Nc3cnc(C#N)cn3)n[nH]2)nc1C` [Example 3-48, 5-((5-(3-(((1R,3S)-3-aminocyclopentyl)oxy)-5,6-dimethylpyridin-2-yl)-1H-pyrazol-3-yl)amino)pyrazine-2-carbonitrile], for which the results for the IC50 in assay [1] and in assay [2] were no more than 50 nM and no more than 10 nM, respectively.

Consider `COc1cccc(O[C@H]2CC3(C[C@@H](N)C3)C2)c1-c1cc(Nc2cnc(C#N)cn2)n[nH]1` (stereo partly shown) [Example 3-10, 5-((5-(2-((6-aminospiro[3.3]heptan-2-yl)oxy)-6-methoxyphenyl)-1H-pyrazol-3-yl)amino)pyrazine-2-carbonitrile], for which the results for the IC50 in assay [1] and in assay [2] were no more than 50 nM and no more than 10 nM, respectively.

As to `Cc1cc(F)c(-c2cc(Nc3cnc(C#N)cn3)n[nH]2)c(O[C@@H]2CC[C@@H](N)C2)c1` [Example 5-1, 5-((5-(2-(((1R,3R)-3-aminocyclopentyl)oxy)-6-fluoro-4-methylphenyl)-1H-pyrazol-3-yl)amino)pyrazine-2-carbonitrile], the results for the IC50 in assay [1] and in assay [2] were no more than 50 nM and no more than 10 nM, respectively.

Regarding `COc1cccc(O[C@H]2CC[C@@H](N)CC2)c1-c1cc(Nc2cnc(C#N)cn2)n[nH]1` [Example 1-11, 5-((5-(2-(((1s,4s)-4-aminocyclohexyl)oxy)-6-methoxyphenyl)-1H-pyrazol-3-yl)amino)pyrazine-2-carbonitrile], the IC50 in assay [1] is 100 to 500 nM; in assay [2], 10 to 100 nM.

For the compound `CN[C@@H]1CC[C@@H](Oc2cc(C)cc(F)c2-c2cc(Nc3cnc(C#N)cn3)n[nH]2)C1` [Example 5-3, 5-((5-(2-fluoro-4-methyl-6-(((1R,3R)-3-(methylamino)cyclopentyl)oxy)phenyl)-1H-pyrazol-3-yl)amino)pyrazine-2-carbonitrile], the IC50 is no more than 50 nM in assay [1] and no more than 10 nM in assay [2].

Take `Cc1ccc(O[C@@H]2CC[C@@H](N)C2)c(-c2cc(Nc3cnc(C#N)cn3)n[nH]2)n1` [Example 1-60, 5-((5-(3-(((1R,3R)-3-aminocyclopentyl)oxy)-6-methylpyridin-2-yl)-1H-pyrazol-3-yl)amino)pyrazine-2-carbonitrile]: the IC50 was no more than 50 nM in assay [1] and no more than 10 nM in assay [2].

Take `N#Cc1cnc(Nc2cc(-c3ccccc3O[C@H]3C[C@H](N)C3)[nH]n2)cn1` [Example 1-9, 5-((5-(2-((1r,3r)-3-aminocyclobutoxy)phenyl)-1H-pyrazol-3-yl)amino)pyrazine-2-carbonitrile]: the values for the IC50 in assay [1] and in assay [2] were 100 to 500 nM and 10 to 100 nM, respectively.

As for `CCOc1cccc(O[C@H]2CC[C@H](N)CC2)c1-c1cc(Nc2cnc(C#N)cn2)n[nH]1` [Example 1-17, 5-((5-(2-(((1r,4r)-4-aminocyclohexyl)oxy)-6-ethoxyphenyl)-1H-pyrazol-3-yl)amino)pyrazine-2-carbonitrile], the 50% inhibitory concentration (IC50) is 500 to 1000 nM in assay [1] and 10 to 100 nM in assay [2].

As to `N#Cc1cnc(Nc2cc(-c3c(F)cccc3O[C@@H]3CCCC[C@H](N)C3)[nH]n2)cn1` [Example 3-35, 5-((5-(2-(((1R,3S)-3-aminocycloheptyl)oxy)-6-fluorophenyl)-1H-pyrazol-3-yl)amino)pyrazine-2-carbonitrile], the IC50 is no more than 50 nM in assay [1] and no more than 10 nM in assay [2].

Regarding `N#Cc1cnc(Nc2cc(-c3c(F)cc(Cl)cc3O[C@@H]3CC[C@@H](N)C3)[nH]n2)cn1` [Example 3-30, 5-((5-(2-(((1R,3R)-3-aminocyclopentyl)oxy)-4-chloro-6-fluoropheny)-1H-pyrazol-3-yl)amino)pyrazine-2-carbonitrile], the figures for the IC50 in assay [1] and in assay [2] were 100 to 500 nM and no more than 10 nM, respectively.

In the case of `N#Cc1cnc(Nc2cc(-c3ccccc3O[C@H]3C[C@@H](N)C3)[nH]n2)cn1` [Example 1-10, 5-((5-(2-((1s,3s)-3-aminocyclobutoxy)phenyl)-1H-pyrazol-3-yl)amino)pyrazine-2-carbonitrile], the IC50 in assay [1] is greater than 1000 nM; in assay [2] it was 100 to 500 nM.

With `COc1cccc(O[C@@H]2CC[C@H](N)C2)c1-c1cc(Nc2cnc(C#N)c(C)n2)n[nH]1` [Example 1-39, 5-((5-(2-(((1R,3S)-3-aminocyclopentyl)oxy)-6-methoxyphenyl)-1H-pyrazol-3-yl)amino)-3-methylpyrazine-2-carbonitrile], the results for the IC50 in assay [1] and in assay [2] were 500 to 1000 nM and 10 to 100 nM, respectively.

On to `N#Cc1cnc(Nc2cc(-c3nc(C(F)(F)F)ccc3O[C@@H]3CC[C@H](N)C3)[nH]n2)cn1` [Example 3-49, 5-((5-(3-(((1R,3S)-3-aminocyclopentyl)oxy)-6-(trifluoromethyl)pyridin-2-yl)-1H-pyrazol-3-yl)amino)pyrazine-2-carbonitrile], for which the IC50 in assay [1] is 100 to 500 nM; in assay [2] it was 10 to 100 nM.

In the case of `COc1cccc(O[C@H]2CC[C@@H]2N)c1-c1cc(Nc2cnc(C#N)cn2)n[nH]1` [Example 3-5, 5-((5-(2-((1S,2S)-2-aminocyclobutoxy)-6-methoxyphenyl)-1H-pyrazol-3-yl)amino)pyrazine-2-carbonitrile], the results for the IC50 in assay [1] and in assay [2] were no more than 50 nM and no more than 10 nM, respectively.

Consider `N#Cc1cnc(Nc2cc(-c3ccccc3O[C@@H]3CC[C@@H](N)C3)[nH]n2)cn1` (stereo in doubt) [Example 1-37, 5-((5-(2-(((1R,3R)-3-aminocyclopentyl)oxy)phenyl)-1H-pyrazol-3-yl)amino)pyrazine-2-carbonitrile], for which the figures for the IC50 in assay [1] and in assay [2] were greater than 1000 nM and 100 to 500 nM, respectively.

As for `CN[C@@H]1CC[C@@H](Oc2ccc(C)nc2-c2cc(Nc3cnc(C#N)cn3)n[nH]2)C1` [Example 3-45, 5-((5-(6-methyl-3-(((1R,3R)-3-(methylamino)cyclopentyl)oxy)pyridin-2-yl)-1H-pyrazol-3-yl)amino)pyrazine-2-carbonitrile], the half-maximal inhibitory concentration (IC50) in assay [1] was no more than 50 nM; in assay [2] it was no more than 10 nM.

For `CN[C@@H]1CC[C@@H](Oc2cc(F)c(C)cc2-c2cc(Nc3cnc(C#N)cn3)n[nH]2)C1` [Example 3-21, 5-((5-(4-fluoro-5-methyl-2-(((1R,3R)-3-(methylamino)cyclopentyl)oxy)phenyl)-1H-pyrazol-3-yl)amino)pyrazine-2-carbonitrile], the IC50 is 50 to 100 nM in assay [1] and no more than 10 nM in assay [2].
